Tests used:
GL261 tumors = test: Tumor volume assessment / growth delay; format: in vivo, C57BL6 mice
Protocol: GL261 tumors were generated by subcutaneous injection of 10^6 viable GL261 cells suspended in 0.2 ml of a 0.6% agarose solution into the right thigh of C57BL6 mice. […] An equal number of large and intermediate size tumors were present in each group. […] Control mice received identical doses and schedule of either SU5416 alone or radiation alone. Twice each week, tumor volumes were measured using skin calipers as previously described by […] et al., 1998; […] et al., 1995; and Staba et al., 1998. Tumor volumes were calculated using a formula: a×b×c/2, where a=maximal width dimension, b=maximal length dimension, and c=maximal depth dimension, which was derived from the formula for an ellipsoid (πd^3/6). Data were calculated as the percent of original (day 0) tumor volume and graphed as fractional tumor volume ±1 standard deviation for each treatment group. Variance was analyzed by the Kruskal-Wallis method (Kruskal & Wallis, 1952). Growth delay was determined as the number of days required for a tumor to reach a predetermined volume, for example three-fold the original volume, or a volume of 1 cm^3. […] In a second experiment, mice were randomly assigned to each of the four treatment groups for a total of 10 mice in each group. […] Flk-1 inhibition and radiation treatments were initiated fourteen days after the tumor cells had been injected and were performed as described herein above.

EPCs in GI261 gliomas = test: Endothelial progenitor cell (EPC) infiltration of irradiated tumor; format: in vivo, mice; settings: SU5416 and radiation; tumor sections on days 1, 4 and 7
Protocol: EPCs were isolated from peripheral circulation, fixed with paraformaldehyde, and incubated with antibodies that specifically bind to Flk or to CD31. A fluorescently-labeled secondary antibody was used to detect Flk and CD31 (PECAM; platelet-endothelial cell adhesion molecule 1) proteins on the surface of EPCs.
Mice bearing GI261 gliomas, generated as described in Example 1, received radiation […] treatment of the tumor. EPCs were isolated from peripheral circulation and fluorescently labeled with Dil (1,1′-dioctadecyl-3,3,3′,3′-tetramethylindocarbocyanine perchlorate; available from Molecular Probes, Inc., Eugene, Oreg., United States of America). Labeled EPCs were then administered via tail vein injection to tumor-bearing mice immediately following tumor irradiation. Tumor sections were obtained on days 1, 4, and 7 following irradiation. In control mice, EPCs were detected in the perivascular space at day 4, and then proliferated and migrated into to the tumor by day 7.

HUVEC [1] = test: Radiation-induced apoptosis in endothelial cells (HUVEC); format: cell-based, human
Protocol: FIG. 5 is a bar graph depicting an increased percentage of endothelial cells undergoing apoptosis in response to VEGF-R2 inhibition followed by radiotherapy. […] Cells were treated. with 6 Gy of radiation and stained 24 hours later. The percentage of cells undergoing apoptosis was determined for each of the treatment groups as described in Example 6. The mean percentage of apoptotic cells and the standard error of the mean were determined using 4 culture plates in each treatment group.
To determine whether Flk-1 inhibitors enhance radiation-induced intrinsic cell death mechanisms, radiation-induced apoptosis in HUVEC human primary culture endothelial cells, 3B11 murine endothelial cells, and human microdermal endothelial cells (HMEC) was studied following Flk-1 inhibition. […] Cells were then treated with 6 Gy of ionizing radiation. Cultures were stained to reveal apoptotic cells 24 hours later. Endothelial cell death was quantified by counting the number of apoptotic bodies in 100 cells.

[2] = test system: GL261 and B16F0 tumor blood flow; test: Power Doppler sonography of tumor blood flow; format: in vivo, C57BL6 mice
Description: Power Doppler sonography was used to study the response of tumor blood vessels to ionizing radiation. This method utilizes amplitude to measure flow in microvasculature. Tumors were imaged with a 10-5 MHz ENTOS® linear probe (Advanced Technology Laboratories, Inc., Bothell, Wash., United States of America) attached to an HDI® 5000 diagnostic ultrasound system (Advanced Technology Laboratories, Inc., Bothell, Wash., United States of America).
Power Doppler sonography images were obtained with the power gain set to 82%. Care was taken to minimize motion artifact. A 20-frame cineloop sweep of the entire tumor was obtained with the probe perpendicular to the long axis of the lower extremity along the entire length of the tumor.
The images were analyzed using HDI® software (Advanced Technology Laboratories, Inc., Bothell, Wash., United States of America). This software allows direct evaluation of Power Doppler cineloop raw data. Color area was recorded for the entire tumor. […]
To determine whether inhibition of Flk-1-mediated signal transduction also enhances the cytotoxic effects of radiotherapy in established tumors, Power Doppler sonography was used to quantify blood flow in 1 cm diameter tumors treated with Flk-1 inhibitors and ionizing radiation. […] Blood flow was quantified by Power Doppler sonography on days 4 and 7 according to methods described in Example 3.

[3] = test system: GL261 and B16F0 tumor blood vessels; test: Tumor vascular window model (vascular length density); format: in vivo, C57BL6 mice
Protocol: Penicillin/streptomycin solution (200 μl; available from GIBCO™ Invitrogen Corporation, Carlsbad, Calif., United States of America) was injected into the hind limb of the mouse prior to preparation of the window chamber. The dorsal ventral window chamber was prepared using a 3-gram plastic frame, which was applied to the skin of a test animal and remained attached for the duration of the study. Briefly, the chamber was screwed together, and the epidermis was cut and left open with a plastic covering.
To prepare a test animal for application of the plastic frame, the dorsal midline was found along the animal's back, and a clip was placed to hold the skin in position. […]
GL261 and B16F0 cells were implanted into the dorsal skin fold window chamber. […] Scanned slides were analyzed using OPTIMAS® image analysis software (Bioscan, Inc., Edmonds, Wash., United States of America; available from Media Cybernetics, Silver Spring, Md., United States of America) or IMAGE-PRO® software (Media Cybernetics, Silver Spring, Md., United States of America) as described below.
Vascular center lines were positioned by OPTIMAS® software or IMAGE-PRO® software and verified by an observer blinded to the treatment groups. Tumor blood vessels were quantified using OPTIMAS® software, which quantified the vascular length density of blood vessel within the microscopic field. […]

[4] = test system: tumor blood flow (B16F0, LLC, GL261, D54 tumors); test: Restoration of tumor blood flow after radiotherapy (Doppler); format: in vivo, mice; settings: SU5416 in combination with radiation, measured daily for 7 days; radiation-only controls restored flow by day 7
Description: FIG. 7 is a bar graph depicting inhibition of tumor revascularization via administration of a VEGF-R2 inhibitor. Doppler analysis of blood flow in four tumor types is shown on 3, 5, and 7 days following radiation treatment. Animals received radiation treatment alone (control) or in combination with SU5416. In control animals, tumor revascularization occurs within 7 days following radiation treatment. Tumor revascularization is repressed in animals receiving SU5416 in combination with radiation treatment. Open bars, B16F0 tumors; solid bars, LLC tumors; stippled bars, GL261 tumors; hatched bars, D54 tumors.
Tumor-bearing mice were generated as described in Example 1. […] Control animals were treated with radiation alone. Doppler analysis of tumor blood flow was measured daily for 7 days using the methods described in Example 3. In control animals receiving only radiation treatment, restoration of tumor blood flow was observed by day 7.

[5] = in vivo; cited from earlier work
Flk-1 = settings: Lin et al., 1998; cited from earlier work
HUVEC [6] = settings: Lin et al., 1998; cited from earlier work

Row | Molecule | tumor growth delay, SU5416 alone (GL261 tumors; 0.75 mg intraperitoneal on days 0, 4, 7 and 11, first experiment) | tumor volume, SU5416 followed by radiation (GL261 tumors; first experiment (FIG. 6A), 0.75 mg i.p. ×4 plus 3 Gy ×8, p=0.01 vs radiation alone, p<0.009 vs SU5416 alone) | tumor volume, SU5416 and radiation (GL261 tumors; second experiment (FIG. 6B), 10 mice per group, p=0.01 vs radiation alone, p=0.006 vs SU5416 alone) | extravasation of EPCs into the tumor (EPCs in GI261 gliomas) | percentage of apoptotic cells, with radiation (HUVEC [1]; 50 μM SU5416 or 10^8 pfu Ad.ExFlk plus 6 Gy, stained 24 hours later) [%] | percentage of cells undergoing apoptosis, no radiation (HUVEC [1]; 50 μM SU5416 or 10^8 pfu Ad.ExFlk, not exposed to ionizing radiation) [%] | reduction in tumor blood flow, SU5416 plus radiation ([2]; 0.75 mg intraperitoneal 1 hour prior to irradiation, 3 Gy per day for 7 days, p=0.004 vs either treatment alone) | reduction in tumor blood flow, SU5416 alone ([2]; 0.75 mg intraperitoneal, 3 doses, no radiation, 1 cm GL261 and B16F0 tumors, days 4 and 7) | time to complete destruction of tumor blood vessels ([3]; 0.75 mg administered 1 hour prior to 2 Gy, p=0.02 vs radiation alone) [h] | regression of tumor blood vessels, SU5416 alone ([3]; 0.75 mg, absence of ionizing radiation) | tumor blood flow after radiation treatment [4] | plasma half-life [5] [h] | activation of Flk-1 (Flk-1) | VEGF-induced DNA synthesis and migration in HUVEC (HUVEC [6])
1 | Cc1cc(C)c(/C=C2\C(=O)Nc3ccccc32)[nH]1 [SU5416] | No growth delay | significantly reduced tumor volumes | significantly reduced tumor volumes | extravasation of EPCs into the tumor was prevented | 14 | 4 | significant reduction in tumor blood flow | minimal reduction | ≤ 24 | minimal regression of the tumor blood vessels and rapid restoration of vasculature | tumor blood flow was repressed | 1 to 2 |  | 
2 | ExFlk.6His: soluble extracellular component of Flk-1 tagged with 6 histidine residues (protein, UniProt P35918 20-762, looked up, extracellular domain His6 tag) extracellular domain: ASVGLPGDFLHPPKLSTQKDILTILANTTLQITCRGQRDLDWLWPNAQRDSEERVLVTECGGGDSIFCKTLTIPRVVGNDTGAYKCSYRDVDIASTVYVYVRDYRSPFIASVSDQHGIVYITENKNKTVVIPCRGSISNLNVSLCARYPEKRFVPDGNRISWDSEIGFTLPSYMISYAGMVFCEAKINDETYQSIMYIVVVVGYRIYDVILSPPHEIELSAGEKLVLNCTARTELNVGLDFTWHSPPSKSHHKKIVNRDVKPFPGTVAKMFLSTLTIESVTKSDQGEYTCVASSGRMIKRNRTFVRVHTKPFIAFGSGMKSLVEATVGSQVRIPVKYLSYPAPDIKWYRNGRPIESNYTMIVGDELTIMEVTERDAGNYTVILTNPISMEKQSHMVSLVVNVPPQIGEKALISPMDSYQYGTMQTLTCTVYANPPLHHIQWYWQLEEACSYRPGQTSPYACKEWRHVEDFQGGNKIEVTKNQYALIEGKNKTVSTLVIQAANVSALYKCEAINKAGRGERVISFHVIRGPEITVQPAAQPTEQESVSLLCTADRNTFENLTWYKLGSQATSVHMGESLTPVCKNLDALWKLNGTMFSNSTNDILIVAFQNASLQDQGDYVCSAQDKKTKKRHCLVKQLIILERMAPMITGNLENQTTTIGETIEVTCPASGNPTPHITWFKDNETLVEDSGIVLRDGNRNLTIRRVRKEDGGLYTCQACNVLGCARAETLFIIEGAQEKTNLE |  |  |  |  |  |  |  |  |  |  |  |  | blocks activation of Flk-1 | inhibits

Reference: patent US20030181377A1, “Inhibition of VEGF receptor signaling reverses tumor resistance to radiotherapy” (Vanderbilt University, priority 2002, published 2003)
